In publication PMC6017830, “Furan- and Thiophene-2-Carbonyl Amino Acid Derivatives Activate Hypoxia-Inducible Factor via Inhibition of Factor Inhibiting Hypoxia-Inducible Factor-1” (Molecules : A Journal of Synthetic Chemistry and Natural …, 2018):
Entries after “also recorded” stand apart in the source; their conditions may differ.

Legend:
SKN:HRE-MLuc cells = assay: MTS assay (cellular toxicity); assay type: cell-based, human; details: for IC50: Homo sapiens, MTS assay
Text: Next, we evaluated the activation of HIF by furan- and thiophene-2-carbonyl amino acid derivatives using the evaluation methods described above. Simultaneously, we investigated cellular toxicity for those derivatives with a 3-(4,5-dimethylthiazol-2-yl)-5-(3-carboxymethoxyphenyl)-2-(4-sulfophenyl)-2H-tetrazolium (MTS) assay. To indicate cellular membrane permeability, the partition coefficients, which are frequently represented by calculated logP (clogP) are listed in Table 1 and Table 2.
Cellular toxicity was measured using the CellTiter 96® Aqueous One Solution Cell Proliferation Assay kit (Promega, Madison, WI, USA). The cells were stimulated with each compound and treated with the CellTiter solution. After incubation for 3 h, the absorbance of the solutions at 492 nm was measured by Multiskan FC (Thermo Fisher Scientific, Waltham, MS, USA). As a negative control, wells with culture media were used. Wells treated with DMSO (0.1%) were used as a positive control. The IC50 values were determined using these controls.

[1] = system: HIF-HRE transcriptional activity in SKN:HRE-MLuc cells (reflects FIH-1 inhibition); assay: HIF activity under hypoxia, HRE-MLuc luciferase reporter assay; assay type: cell-based, human; details: for activation at 100 µM / minimal effective concentration: Homo sapiens, SKN:HRE-MLuc cells, 3% O2, 24 h; for activation at 100 µM: read-out: 100 μM Activity (RLU intensity at 100 μM stimulation compared with the positive control DMOG); for minimal effective concentration: doses 100, 25, 6.3, 1.6 μM, DMOG 100 μM as positive control, read-out: 25% Activity (lower dose limit showing 25% of the RLU intensity of the positive control DMOG); for HIF activity (HRE-MLuc reporter), result in words: hypoxic conditions (3% O2), 24 h, reference compounds at 100 μM
Experimental: To evaluate HIF transactivation following FIH-1 inhibition […], we employed a luciferase reporter assay system in the human neuroblastoma cell line SK-N-BE(2)c. […] Hereafter these HRE reporter cells were designated SKN:HRE-MLuc cells.
SKN:HRE-MLuc (4 × 10^4) were incubated for 24 h on a 96 well culture plate. The medium was replaced with complete media and the test compounds (100, 25, 6.3 and 1.6 μM). DMSO (0.1%) was used as a vehicle control, DMOG (100 μM) and FG4592 (100 μM) were used as a PHDs or FIH-1 inhibitor. The cells were incubated for 24 h under a humidified atmosphere of 5% CO2 and 3% O2 at 37 °C. After incubation, the MLuc activity in culture media was measured with luciferase substrate (Takara, Shiga, Japan) by LB960 luminometer (Berthold, Wildbad, Germany). The HIF activity was calculated as the MLuc intensity, based on the vehicle and positive controls. The lower limit dose out of 100 μM, 25 μM, 6.3 μM, 1.6 μM was listed in Table 1 and Table 2, where 25% RLU intensity was measured using DMOG as a positive control.

[2] = system: HIF-HRE transcriptional activity in SKN:HRE-MLuc cells (PHD inhibition); assay: HIF activity under normoxia, HRE-MLuc luciferase reporter assay; assay type: cell-based, human; details: normoxic conditions, 100 μM, 24 h
Text: We next measured HIF transactivity of FIH-1 inhibitors under normoxic conditions to confirm whether these inhibitors stabilized HIF via inhibiting PHD. Under normoxic conditions, inhibition of PHD dramatically activated HRE reporter. In contrast, when PHD was inhibited under hypoxic conditions, the rate of activation of the HRE reporter was low because hypoxia already partially activated the HRE reporter. The compounds showing HIF activation under hypoxic conditions (compounds 7, 9–11, 15–18, 28, 30, and 38) were evaluated by the luciferase assays in SKN:HRE-MLuc cells under normoxic conditions (Figure 6).
SKN:HRE-MLuc (4 × 10^4) were incubated for 24 h on a 96 well culture plate. The medium was replaced with complete media and the tested compounds (100 μM). DMSO (0.1%) was used as a negative control, and DMOG (100 μM) was used as a positive control. The cells were incubated for 24 h under a humidified atmosphere of 5% CO2 at 37 °C. After incubation, the MLuc activity in culture media was measured with the method descried above.

[3] = system: CA9 mRNA in SK-N-BE(2)c cells; assay: Quantitative RT-PCR of HIF target gene CA9; assay type: cell-based, human; details: 100 μM, 3% O2, SK-N-BE(2)c cells
Experimental: (§1) To confirm transactivation of HIF by our optimized compounds, the expression of HIF target genes was analyzed with quantitative polymerase chain reaction (PCR) in SK-N-BE(2)c cells. We attempted to analyze several HIF target genes including CA9, VEGF-α, EPO, and PHD3, under 3% O2 conditions.
(§2) Total RNA was extracted from cells using ISOGEN (Nippon Gene, Tokyo, Japan). cDNA syntheses were performed using random hexamer primers and SuperScript II Reverse Transcriptase (Thermo Fisher Scientific) following the manufacturer’s instructions. Quantitative reverse transcription polymerase-chain reaction (RT-PCR) analysis was performed as follows: amplification was done in an initial denaturing step at 96 °C for 2 min, followed by 35 cycles of PCR (96 °C for 1 min, 57 °C for 30 s, 72 °C for 30 s) using recombinant Taq polymerase (Takara, Otsu, Japan) with the respective primer pairs. For human carbonic anhydrase IX (CA9), 5′-CCTGGCTGCTGGTGACATCC-3′ and 5′-AAGGAAGTGGCATAATGAGC-3′. […] Data were analyzed using the comparative Ct method as means of relative quantification, and were normalized to an endogenous reference (β-actin) and relative to a calibrator (normalized Ct value obtained from cells treated with vehicle only). Data were expressed as 2^−ΔΔCt.

[4] = system: HIF-1α mRNA in SK-N-BE(2)c cells; assay: Quantitative RT-PCR of HIF-1α mRNA; assay type: cell-based, human; details: 100 μM, 3% O2, SK-N-BE(2)c cells
Experimental: as §1, §2

[5] = system: HIF-HRE transcriptional activity in SKN:HRE-MLuc cells (reflects FIH-1 inhibition); assay: HIF activity under hypoxia, HRE-MLuc luciferase reporter assay; assay type: cell-based, human; details: 100 μM; normoxic or hypoxic (3% O2), control or FIH-1 siRNA transfectants, Figure 3c (A vs E, F, G, H)

Structure (SMILES) | IC50 (SKN:HRE-MLuc cells) | activation at 100 µM [1] | minimal effective concentration [1] | HIF activity (HRE-MLuc reporter), result in words [1] | HIF transactivation (HRE-MLuc reporter), result in words [2] | CA9 mRNA expression, result in words [3] | HIF-1α mRNA level, result in words [4] | melting point | Cellular toxicity in the MTS assays, result in words (SKN:HRE-MLuc cells) | HIF stabilization activity (HRE-MLuc reporter), result in words [5]
COC(=O)[C@H](Cc1ccccc1)NC(=O)c1ccc(C)o1 [Compound 7, (S)-Methyl (5-methylfuran-2-carbonyl)phenylalaninate] | > 100 µM | 22% | 25 µM | stabilized HIF and transactivated the HRE-driven MLuc reporter | did not elicit any HIF transactivation | – | – | – | – | –
COC(=O)[C@H](Cc1c[nH]c2ccccc12)NC(=O)c1ccc(C)o1 [Compound 9, (S)-Methyl (5-methylfuran-2-carbonyl)tryptophanate] | > 100 µM | 22% | 25 µM | – | – | significantly elevated | slightly suppressed by DMOG treatment but not by treatment with compound 9 | – | – | –
COC(=O)CNC(=O)c1cc(-c2ccccc2)cs1 [Compound 26, Methyl (4-phenylthiophene-2-carbonyl)glycinate] | > 100 µM | 0% | – | – | – | – | – | 93 to 96 °C | – | –
CCOC(=O)[C@H](Cc1ccccc1)NC(=O)c1cc(-c2ccccc2)cs1 [Compound 27, (S)-Ethyl (4-phenylthiophene-2-carbonyl)phenylalaninate] | > 100 µM | 2% | – | – | – | – | – | 94 to 96 °C | – | –
COC(=O)[C@H](Cc1c[nH]c2ccccc12)NC(=O)c1cc(-c2ccccc2)cs1 [Compound 28, (S)-Methyl (4-phenylthiophene-2-carbonyl)tryptophanate] | > 100 µM | 0% | 25 µM | stabilized HIF and transactivated the HRE-driven MLuc reporter | did not elicit any HIF transactivation | – | – | 150 to 152 °C | – | –
COC(=O)[C@@H](Cc1c[nH]c2ccccc12)NC(=O)c1cc(-c2ccccc2)cs1 [Compound 29, (R)-Methyl (4-phenylthiophene-2-carbonyl)tryptophanate] | > 100 µM | 0% | – | – | – | – | – | 145 to 149 °C | – | –
COC(=O)[C@H](Cc1ccc(O)cc1)NC(=O)c1cc(-c2ccccc2)cs1 [Compound 30, (S)-Methyl (4-phenylthiophene-2-carbonyl)tyrosinate] | 75 µM | 0% | 6.3 µM | stabilized HIF and transactivated the HRE-driven MLuc reporter | did not elicit any HIF transactivation | – | – | 176 to 178 °C | showed cellular toxicity | –
COC(=O)CNC(=O)c1ccc(-c2ccc(-c3ccccc3)cc2)s1 [Compound 31, Methyl (5-((1,1′-biphenyl)-4-yl)thiophene-2-carbonyl)glycinate] | > 100 µM | 0% | – | – | – | – | – | 183 to 185 °C | – | –
COC(=O)[C@H](Cc1c[nH]c2ccccc12)NC(=O)c1cc2ccccc2o1 [Compound 38, (S)-Methyl (benzofuran-2-carbonyl)tryptophanate] | > 100 µM | 25% | 25 µM | stabilized HIF and transactivated the HRE-driven MLuc reporter | did not elicit any HIF transactivation | – | – | – | – | –
COC(=O)CNC(=O)C(=O)OC [DMOG, dimethyloxalyl glycine, reference compound] | – | – | – | – | – | – | slightly suppressed | – | – | higher HIF stabilization activity
Cc1nc(C(=O)NCC(=O)O)c(O)c2ccc(Oc3ccccc3)cc12 [FG4592, reference compound] | – | – | – | only slightly stabilized HIF | stabilized HIF compared with vehicle-treated cells; also recorded: showed significant HRE reporter activity | – | – | – | – | –
